Measurements from patent publication US10239883B2, “4-imidazopyridazin-1-yl-benzamides as BTK inhibitors” (Merck Sharp & Dohme B.V., priority 2011, dated 2019).

Assays:
Btk enzyme (His-Btk) = Btk enzyme (His-Btk) (Homo sapiens (Human), UniProt Q06187); assay: Btk enzyme activity, IMAP fluorescence polarization assay; conditions: 60 min pre-incubation, 5 μM ATP, bin bound in nM
Lyn enzyme = Lyn enzyme (Homo sapiens (Human), UniProt P07948); assay: Lyn enzyme activity, IMAP fluorescence polarization assay; conditions: for EC50 Lyn activity values: IMAP, 60 min pre-incubation, 2 μM ATP, bin bound in μM
Lck enzyme = Lck enzyme (Homo sapiens (Human), UniProt P06239); assay: Lck enzyme activity, IMAP fluorescence polarization assay; conditions: 60 min pre-incubation, 6 μM ATP, bin bound in μM
Chain of Lck enzyme (P06239 whole entry): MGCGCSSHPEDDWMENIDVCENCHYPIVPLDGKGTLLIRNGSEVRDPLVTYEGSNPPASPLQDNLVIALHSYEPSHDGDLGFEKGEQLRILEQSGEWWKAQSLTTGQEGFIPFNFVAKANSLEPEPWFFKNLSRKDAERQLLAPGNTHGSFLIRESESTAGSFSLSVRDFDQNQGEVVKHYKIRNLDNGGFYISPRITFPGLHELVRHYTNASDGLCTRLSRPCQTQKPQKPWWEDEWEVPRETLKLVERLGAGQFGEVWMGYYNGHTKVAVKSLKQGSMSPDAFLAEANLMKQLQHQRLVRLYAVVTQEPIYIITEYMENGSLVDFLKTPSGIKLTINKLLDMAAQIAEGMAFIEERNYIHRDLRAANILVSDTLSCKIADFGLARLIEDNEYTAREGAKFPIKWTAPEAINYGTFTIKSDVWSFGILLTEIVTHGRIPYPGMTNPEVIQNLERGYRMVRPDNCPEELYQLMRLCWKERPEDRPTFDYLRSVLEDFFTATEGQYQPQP

Chain of Lyn enzyme (P07948 whole entry): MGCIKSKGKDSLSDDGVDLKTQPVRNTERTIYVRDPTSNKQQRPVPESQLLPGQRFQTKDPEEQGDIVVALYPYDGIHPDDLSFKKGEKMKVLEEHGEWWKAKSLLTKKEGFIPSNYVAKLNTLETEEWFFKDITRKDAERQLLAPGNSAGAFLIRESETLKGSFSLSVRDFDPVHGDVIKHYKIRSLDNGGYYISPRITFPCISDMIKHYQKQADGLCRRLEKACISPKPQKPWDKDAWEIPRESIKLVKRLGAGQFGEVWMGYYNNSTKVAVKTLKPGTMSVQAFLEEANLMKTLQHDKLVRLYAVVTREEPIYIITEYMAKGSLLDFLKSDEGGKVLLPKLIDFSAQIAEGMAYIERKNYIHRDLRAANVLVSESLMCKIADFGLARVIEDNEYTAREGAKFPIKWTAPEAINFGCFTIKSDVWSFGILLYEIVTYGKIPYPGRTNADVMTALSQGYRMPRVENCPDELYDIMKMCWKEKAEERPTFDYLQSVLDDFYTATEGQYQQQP
Chain of Btk enzyme (His-Btk) (Q06187 whole entry): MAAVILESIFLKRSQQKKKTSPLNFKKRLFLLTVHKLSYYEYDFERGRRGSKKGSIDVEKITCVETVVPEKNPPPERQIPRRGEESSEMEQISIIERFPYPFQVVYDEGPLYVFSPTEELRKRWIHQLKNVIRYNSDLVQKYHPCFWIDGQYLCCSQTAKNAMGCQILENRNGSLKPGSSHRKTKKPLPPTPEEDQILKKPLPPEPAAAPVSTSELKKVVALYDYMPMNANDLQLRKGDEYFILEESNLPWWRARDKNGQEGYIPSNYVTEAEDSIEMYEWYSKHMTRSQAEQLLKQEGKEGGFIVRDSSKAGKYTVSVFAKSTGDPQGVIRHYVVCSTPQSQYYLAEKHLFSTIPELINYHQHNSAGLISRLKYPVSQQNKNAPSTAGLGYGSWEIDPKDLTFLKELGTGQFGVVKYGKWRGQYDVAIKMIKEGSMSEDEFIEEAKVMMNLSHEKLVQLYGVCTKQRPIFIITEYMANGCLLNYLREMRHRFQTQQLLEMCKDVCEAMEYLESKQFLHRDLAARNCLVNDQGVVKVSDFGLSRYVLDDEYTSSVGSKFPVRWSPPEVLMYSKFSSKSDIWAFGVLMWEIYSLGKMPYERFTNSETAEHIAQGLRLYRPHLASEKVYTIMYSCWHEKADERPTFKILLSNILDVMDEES

EC50 Btk activity values (Btk enzyme (His-Btk))	EC50 (Lyn enzyme)	EC50 Lyn activity values (Lyn enzyme)	EC50 Lck activity values (Lck enzyme)	SMILES
<100 nM	100 to 1000 nM	<1 µM	<1 µM	CC#CC(=O)N1CCC[C@H]1c1nc(-c2ccc(C(=O)Nc3nccs3)cc2)c2c(N)nccn12 [Example 60, (S)-4-(8-amino-3-(1-but-2-ynoylpyrrolidin-2-yl)imidazo[1,5-a]pyrazin-1-yl)-N-(thiazol-2-yl)benzamide]
–	–	<1 µM	<1 µM	C=CC(=O)N1CCC[C@H]1c1nc(-c2ccc(C(=O)Nc3cc(CC)ccn3)cc2)c2c(N)nccn12 [Example 126, (S)-4-(3-(1-acryloylpyrrolidin-2-yl)-8-aminoimidazo[1,5-a]pyrazin-1-yl)-N-(4-ethylpyridin-2-yl)benzamide]
–	–	<1 µM	<1 µM	C=CC(=O)N1CCC[C@H]1c1nc(-c2ccc(C(=O)Nc3cc(CCC)ccn3)cc2)c2c(N)nccn12 [Example 125, (S)-4-(3-(1-acryloylpyrrolidin-2-yl)-8-aminoimidazo[1,5-a]pyrazin-1-yl)-N-(4-propylpyridin-2-yl)benzamide]
